Patent EP4268823A1, “COMPOUND FOR TREATING NEUROINFLAMMATION” (Universitätsklinikum Hamburg-Eppendorf, priority 2022, dated 2023)

Tests used:
G9a = molecular target: T1, G9a (Mus musculus, UniProt Q9Z148); experiment: H3K9me2 / G9a immunofluorescence staining in primary neuronal cultures; type: cell-based; conditions: for induction of H3K9me2 in response to glutamate: primary cortical cultures, glutamate toxicity
T1 construct: UNC0642 pre-treated primary neuronal cultures compared to respective controls; endogenous in cells; host or cells: primary mouse cortical neuronal cultures (C57BL/6J embryos)
T1 sequence (Q9Z148 1-1263): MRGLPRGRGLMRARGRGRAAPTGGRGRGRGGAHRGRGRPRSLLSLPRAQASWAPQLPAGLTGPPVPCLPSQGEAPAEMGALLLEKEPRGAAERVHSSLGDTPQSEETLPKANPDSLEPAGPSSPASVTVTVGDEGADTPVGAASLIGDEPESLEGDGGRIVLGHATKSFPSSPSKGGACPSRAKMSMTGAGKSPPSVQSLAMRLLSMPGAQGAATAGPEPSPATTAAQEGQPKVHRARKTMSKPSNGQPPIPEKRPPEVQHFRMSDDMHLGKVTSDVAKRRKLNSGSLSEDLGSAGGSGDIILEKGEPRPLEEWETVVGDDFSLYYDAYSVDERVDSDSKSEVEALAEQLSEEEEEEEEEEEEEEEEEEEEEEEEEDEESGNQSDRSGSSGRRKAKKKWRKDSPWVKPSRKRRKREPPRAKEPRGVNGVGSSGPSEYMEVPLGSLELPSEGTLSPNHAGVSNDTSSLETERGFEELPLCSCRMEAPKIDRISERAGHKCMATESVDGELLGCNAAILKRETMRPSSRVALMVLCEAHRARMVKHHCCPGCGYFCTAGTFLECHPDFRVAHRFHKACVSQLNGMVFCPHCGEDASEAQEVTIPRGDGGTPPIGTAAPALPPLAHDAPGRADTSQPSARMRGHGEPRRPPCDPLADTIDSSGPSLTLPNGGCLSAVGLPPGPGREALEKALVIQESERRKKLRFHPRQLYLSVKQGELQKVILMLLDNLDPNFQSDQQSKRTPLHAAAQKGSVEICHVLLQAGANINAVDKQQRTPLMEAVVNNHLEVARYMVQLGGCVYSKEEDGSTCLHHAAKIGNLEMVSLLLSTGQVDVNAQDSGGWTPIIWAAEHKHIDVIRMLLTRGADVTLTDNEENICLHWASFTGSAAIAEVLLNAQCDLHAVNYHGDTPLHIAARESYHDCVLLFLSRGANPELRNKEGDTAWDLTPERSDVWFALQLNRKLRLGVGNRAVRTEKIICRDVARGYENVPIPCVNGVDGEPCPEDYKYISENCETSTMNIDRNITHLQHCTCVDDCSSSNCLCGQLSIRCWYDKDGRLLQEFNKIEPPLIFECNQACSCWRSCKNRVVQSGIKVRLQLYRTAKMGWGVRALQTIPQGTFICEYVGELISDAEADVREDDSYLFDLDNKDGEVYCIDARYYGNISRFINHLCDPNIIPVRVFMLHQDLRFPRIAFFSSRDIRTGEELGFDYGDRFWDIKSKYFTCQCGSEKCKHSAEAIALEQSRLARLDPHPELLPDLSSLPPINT
Protocol: (§1) For primary cortical cultures pregnant C57BL/6J, or G9afl/fl;Snap25-Cre mice were euthanized. To ensure comparability between genotypes, only embryos from heterozygous breeding's were used. Brainstem tissue of each embryo for genotyping was reserved and cortices were isolated, dissociated and cells were plated at a density of 1 × 10^5 cells per 1 cm^2 on poly-D-lysine-coated wells (5 µM Sigma-Aldrich, cat. no. A-003-M). If not stated otherwise, cells were maintained in neurobasal plus medium (supplemented with B27 plus, penicillin, streptomycin and L-glutamine; Gibco, cat. no. A3582901) at 37°C, 5% CO^2 and a relative humidity of 98%, and treated with 1 µM cytarabine (Sigma-Aldrich, cat. no. BP383) at 1 day in vitro (div) to inhibit glial cell proliferation. If no cytarabine was applied cells were maintained in PNBM medium (supplemented with neural cell survival factor, gentamycin and L-glutamine; Lonza). Throughout, cultures after 14-23 div were used for experiments. G9a inhibitor UNC0642 was used in a concentration of 1 µM and cultures were pre-treated 24 hours before further experimental procedures.
Immunocytochemistry was performed as described previously (15). HiPSC-neurons and mouse neurons were cultivated on 12 mm diameter cover slips or on 96-well plates suited for confocal microscopy, fixed with 4% paraformaldehyde (PFA), incubated in 10% normal donkey's serum (NDS) containing 0.25% Triton X-100, and subsequently immunolabeling was performed. Immunostainings were analyzed with a Zeiss LSM 700 confocal microscope.

[1] = system: primary cortical cultures; experiment: RealTime-Glo cell viability assay, glutamate excitotoxicity; type: cell-based, mouse; conditions: 20 µM glutamate-stimulated primary cortical cultures; UNC0642 1 µM pre-treated 24 hours
Protocol: as §1, with “G9a inhibitor UNC0642 was used in a concentration of 1 µM and cultures were pre-treated 24 hours before further experimental procedures.” left out
RealTime-Glo (Promega, cat. no. G9711) MT cell viability substrate and NanoLuc Enzyme was mixed together, added to neuronal cultures and incubated for 5 hours for equilibration of luminescence signal before respective treatments were applied. Luminescence was acquired with a Spark 10M multimode microplate reader (Tecan) at 37°C and 5% CO2 every 30 min over a total time period of 24 hours. […]

[2] = system: primary neuronal cultures; experiment: Cytosolic calcium imaging of glutamate-exposed neuronal cultures; type: cell-based, mouse; conditions: glutamate-exposed neuronal cultures; UNC0642 pre-treated 24 hours; ferrostatin-1 10 min prior to glutamate
Protocol: as §1
Primary neuronal cultures were seeded on Ibidi 60 µ-Dish Quad (cat. No. 80411) plates. Cultures were infected with an AAV7 containing pAAV-Syn-GCamp6f-WPRE-SV40 (86) (Addgene 100837) at 7-10 div with a 20,000-fold multiplicity of infection (MOI). AAV particles were produced according to the standard procedures of the UKE vector facility. Images were acquired with a confocal LSM 700 laser scanning confocal microscope (Zeiss) every 0.48 seconds with a 20× magnification in an imaging chamber maintaining 37 °C and 5% CO2. Infected cultures were imaged in the respective culture medium. Before applying the indicated chemicals, 5-10 min of baseline activity was first recorded. At the end of the recording, 8 µM ionomycin was applied to induce the maximum cellular calcium response that was used for normalization. For data analysis, mean fluorescence values of every cell were measured using Fiji software (NIH) and normalized to the maximal calcium response after ionomycin challenge. For each cell, mean AUC of the calcium response was calculated using a custom R script.

SMILES | induction of H3K9me2 in response to glutamate (G9a) | toxic calcium accumulation (glutamate-induced calcium overload) [2] | further results
NC(CCCP(=O)(O)O)C(=O)O (stereo not shown) [AP5] | potently suppressed the induction of H3K9me2 |  | cell viability [1]: rescued cellular survival
NCCC[C@](N)(C(=O)O)C(F)F [DFMO, alpha-difluoro-methylornithine] |  | rescued glutamate-induced calcium overload | 
O=C(O)CN(CCOCCOCCN(CC(=O)O)CC(=O)O)CC(=O)O [EGTA] | potently suppressed the induction of H3K9me2 |  | 
COC(=O)c1ccc(C2c3[nH]c4ccccc4c3CC(C(=O)OC)N2C(=O)CCl)cc1 (stereo not shown) [RSL3] |  |  | H3K9me2 immunofluorescence after cell death induction (G9a; primary cortical neurons, inducer alone vs. control): significant upregulation of H3K9me2
COC1=C(OC)C(=O)C(C/C=C(\C)CC/C=C(\C)CC/C=C(\C)CC/C=C(\C)CC/C=C(\C)CC/C=C(\C)CC/C=C(\C)CC/C=C(\C)CC/C=C(\C)CCC=C(C)C)=C(C)C1=O [coenzyme Q10] |  | rescued glutamate-induced calcium overload | 
CCOC(=O)c1ccc(NC2CCCCC2)c(N)c1 [ferrostatin-1] |  | rescued glutamate-induced calcium overload | 
